We go through three compounds from patent US5972955A, “Water soluble C-ring analogues of 20(S)-camptothecin” (Dr. Reddy's Research Foundation, priority 1996, dated 1999).

Entries after “also recorded” stand apart in the source; their conditions may differ.

In the first data set the test system is SF-539. Description: NCI in vitro growth inhibition, CNS SF-539. Format: cell-based. The conditions noted are these: Homo sapiens, read-out: 50% Growth Inhibition (GI 50); SF-539, CNS; 48 h. As for the experimental part:
(§1) Inoculates were allowed a preincubation period of 24 h at 37° C. for stabilization.
For `CC[C@@]1(O)C(=O)OCc2c1cc1n(c2=O)C(NC)c2cc3ccccc3nc2-1` (stereo partly drawn) [Example 12, 5-Methylaminocamptothecin], the GI50 came to 1810 nM.

For another data set, the system named is CAKI-1. The experiment in a line: NCI in vitro growth inhibition, renal CAKI-1. Format: cell-based. As to conditions: Homo sapiens, read-out: 50% Growth Inhibition (GI 50); CAKI-1, renal; 48 h. The protocol: as §1
In the case of `CC[C@@]1(O)C(=O)OCc2c1cc1n(c2=O)C(NC)c2cc3ccccc3nc2-1` (stereo partly drawn) [Example 12, 5-Methylaminocamptothecin], the GI50 came out at 2290 nM.

In the next data set the test system is topoisomerase I.
Experiment: not given
As to conditions: cited from earlier work.
Consider `CC[C@@]1(O)C(=O)OCc2c1cc1n(c2=O)Cc2cc3ccccc3nc2-1` [20(S)-Camptothecin], for which the “inhibition of topoisomerase I (in words)” value is given as “inhibitor of topoisomerise I”.

With `C=C1C(=O)OCc2c1cc1n(c2=O)Cc2c-1nc1ccc(O)cc1c2CC` [formula 8], the “inhibition of topoisomerase I (in words)” value was “potent camptothecin like inhibition of topoisomerase I activity”.

The next data set has as its system HL 60. Description: NCI in vitro growth inhibition, leukemia HL 60. It is filed as cell-based. As to conditions: Homo sapiens, read-out: 50% Growth Inhibition (GI 50); HL 60, leukemia; 48 h. The protocol: as §1
On to `CC[C@@]1(O)C(=O)OCc2c1cc1n(c2=O)C(NC)c2cc3ccccc3nc2-1` (stereo partly drawn) [Example 12, 5-Methylaminocamptothecin], for which the GI50 is 220 nM.

Another data set has as its system MCF-7. The experiment in a line: NCI in vitro growth inhibition, breast MCF-7. Format: cell-based. The conditions noted are these: Homo sapiens, MCF7, read-out: 50% Growth Inhibition (GI 50); MCF-7, breast; 48 h. As for the experimental part:
as §1
For the compound `CC[C@@]1(O)C(=O)OCc2c1cc1n(c2=O)C(NC)c2cc3ccccc3nc2-1` (stereo partly drawn) [Example 12, 5-Methylaminocamptothecin], the GI50 worked out at 1250 nM.

For another data set, the system named is H 23. The experiment in a line: NCI in vitro growth inhibition, NSLC H 23. As to conditions: Homo sapiens, NCI-H23, read-out: 50% Growth Inhibition (GI 50); H 23, NSLC; 48 h. Format: cell-based. The protocol: as §1
For `CC[C@@]1(O)C(=O)OCc2c1cc1n(c2=O)C(NC)c2cc3ccccc3nc2-1` (stereo partly drawn) [Example 12, 5-Methylaminocamptothecin], the GI50 was 2570 nM.

In the next data set the test system is HOP 62. Description: NCI in vitro growth inhibition, NSLC HOP 62. The conditions noted are these: Homo sapiens, read-out: 50% Growth Inhibition (GI 50); HOP 62, NSLC; 48 h. Format: cell-based. The protocol: as §1
As for `CC[C@@]1(O)C(=O)OCc2c1cc1n(c2=O)C(NC)c2cc3ccccc3nc2-1` (stereo partly drawn) [Example 12, 5-Methylaminocamptothecin], the GI50 came to 1730 nM.

The subject of another data set is SF 295. The experiment in a line: NCI in vitro growth inhibition, CNS SF 295. It is filed as cell-based. As to conditions: Homo sapiens, read-out: 50% Growth Inhibition (GI 50); SF 295, CNS; 48 h. The protocol: as §1
Take `CC[C@@]1(O)C(=O)OCc2c1cc1n(c2=O)C(NC)c2cc3ccccc3nc2-1` (stereo partly drawn) [Example 12, 5-Methylaminocamptothecin]: the GI50 was found to be 1120 nM.

The test system of a further data set is 786-O. The experiment in a line: NCI in vitro growth inhibition, renal 786-O. As to conditions: Homo sapiens, 786-0, read-out: 50% Growth Inhibition (GI 50), 48 h. Format: cell-based. As for the experimental part:
as §1
As to `CC[C@@]1(O)C(=O)OCc2c1cc1n(c2=O)C(NC)c2cc3ccccc3nc2-1` (stereo partly drawn) [Example 12, 5-Methylaminocamptothecin], the GI50 was 4.07 µM.

System in the next data set: not given
Experiment: not given
The conditions noted are these: cited from earlier work.
In the case of `CC[C@@]1(O)C(=O)OCc2c1cc1n(c2=O)Cc2cc3ccccc3nc2-1` [20(S)-Camptothecin], the “water solubility (in words)” value is listed as “low water solubility”.

For a further data set, the system named is LOX IMVI. Description: NCI in vitro growth inhibition, melanoma LOX IMVI. Format: cell-based. As to conditions: Homo sapiens, read-out: 50% Growth Inhibition (GI 50), 48 h. The protocol:
as §1
Regarding `CC[C@@]1(O)C(=O)OCc2c1cc1n(c2=O)C(NC)c2cc3ccccc3nc2-1` (stereo partly drawn) [Example 12, 5-Methylaminocamptothecin], the GI50 was 2340 nM.

The next data set has as its system T 47D. The experiment in a line: NCI in vitro growth inhibition, breast T 47D. It is filed as cell-based. As to conditions: Homo sapiens, T47D, read-out: 50% Growth Inhibition (GI 50), 48 h. The protocol:
as §1
In the case of `CC[C@@]1(O)C(=O)OCc2c1cc1n(c2=O)C(NC)c2cc3ccccc3nc2-1` (stereo partly drawn) [Example 12, 5-Methylaminocamptothecin], the GI50 was 4.67 µM.

In another data set the test system is SK MEL-5. The experiment in a line: NCI in vitro growth inhibition, melanoma SK MEL-5. It is filed as cell-based. As to conditions: Homo sapiens, read-out: 50% Growth Inhibition (GI 50); SK MEL-5, melanoma; 48 h. The protocol:
as §1
As for `CC[C@@]1(O)C(=O)OCc2c1cc1n(c2=O)C(NC)c2cc3ccccc3nc2-1` (stereo partly drawn) [Example 12, 5-Methylaminocamptothecin], the GI50 came to 2510 nM.

The subject of a further data set is MCF7/ADR. The experiment in a line: NCI in vitro growth inhibition, breast MCF7/ADR. Format: cell-based. As to conditions: Homo sapiens, NCI/ADR-RES, read-out: 50% Growth Inhibition (GI 50), 48 h. The protocol: as §1
Take `CC[C@@]1(O)C(=O)OCc2c1cc1n(c2=O)C(NC)c2cc3ccccc3nc2-1` (stereo partly drawn) [Example 12, 5-Methylaminocamptothecin]: the GI50 is 1940 nM.

The next data set deals with H 522. The experiment in a line: NCI in vitro growth inhibition, NSLC H 522. It is filed as cell-based. As to conditions: Homo sapiens, NCI-H522, read-out: 50% Growth Inhibition (GI 50); H 522, NSLC; 48 h. As for the experimental part: as §1
As for `CC[C@@]1(O)C(=O)OCc2c1cc1n(c2=O)C(NC)c2cc3ccccc3nc2-1` (stereo partly drawn) [Example 12, 5-Methylaminocamptothecin], the GI50 was 2880 nM.

System in a further data set: not given
Experiment: not given
As to conditions: in vivo; cited from earlier work.
For `CC[C@@]1(O)C(=O)OCc2c1cc1n(c2=O)Cc2cc3ccccc3nc2-1` [20(S)-Camptothecin], the “side effects / toxicity (in words)” value was “unacceptable side effects on humans; also recorded: high toxicity problems”.

The subject of a further data set is M-14. The experiment in a line: NCI in vitro growth inhibition, melanoma M-14. It is filed as cell-based. As to conditions: Homo sapiens, M14, read-out: 50% Growth Inhibition (GI 50); M-14, melanoma; 48 h. The protocol: as §1
On to `CC[C@@]1(O)C(=O)OCc2c1cc1n(c2=O)C(NC)c2cc3ccccc3nc2-1` (stereo partly drawn) [Example 12, 5-Methylaminocamptothecin], for which the GI50 is 2180 nM.

In another data set the test system is SR. Description: NCI in vitro growth inhibition, leukemia SR. Format: cell-based. As to conditions: Homo sapiens, read-out: 50% Growth Inhibition (GI 50), 48 h. The protocol:
as §1
In the case of `CC[C@@]1(O)C(=O)OCc2c1cc1n(c2=O)C(NC)c2cc3ccccc3nc2-1` (stereo partly drawn) [Example 12, 5-Methylaminocamptothecin], the GI50 worked out at 30 nM.

Another data set deals with SF-268. Description: NCI in vitro growth inhibition, CNS SF-268. Format: cell-based. As to conditions: Homo sapiens, SF-268, 48 h, read-out: 50% Growth Inhibition (GI 50). As for the experimental part:
as §1
Take `CC[C@@]1(O)C(=O)OCc2c1cc1n(c2=O)C(NC)c2cc3ccccc3nc2-1` (stereo partly drawn) [Example 12, 5-Methylaminocamptothecin]: the GI50 was 850 nM.

In another data set the test system is ACHN. Description: NCI in vitro growth inhibition, renal ACHN. It is filed as cell-based. The conditions noted are these: Homo sapiens, read-out: 50% Growth Inhibition (GI 50), 48 h. The protocol: as §1
For `CC[C@@]1(O)C(=O)OCc2c1cc1n(c2=O)C(NC)c2cc3ccccc3nc2-1` (stereo partly drawn) [Example 12, 5-Methylaminocamptothecin], the GI50 was 970 nM.

Another data set has as its system MOLT-4. Description: NCI in vitro growth inhibition, leukemia MOLT-4. It is filed as cell-based. The conditions noted are these: Homo sapiens, read-out: 50% Growth Inhibition (GI 50); MOLT-4, leukemia; 48 h. As for the experimental part: as §1
In the case of `CC[C@@]1(O)C(=O)OCc2c1cc1n(c2=O)C(NC)c2cc3ccccc3nc2-1` (stereo partly drawn) [Example 12, 5-Methylaminocamptothecin], the GI50 was determined as 150 nM.

In another data set the test system is NCI's 60 human tumor cell line assay. Description: NCI 60 human tumor cell line assay, mean growth inhibition (Table 1). It is filed as cell-based. The conditions noted are these: read-out: IC50 = the mean value of the minimum drug concentration of the agent required to produce 50% cell growth inhibition (GI50); mean over NCI's 60 human tumor cell lines; 48 h; Sulforhodamine B. As for the experimental part: as §1
^a IC50 = the mean value of the minimum drug concentration (μm) of
NCI's 60 human tumor cell line assay.
Regarding `CC[C@@]1(O)C(=O)OCc2c1cc1n(c2=O)C(NC)c2cc3ccccc3nc2-1` (stereo partly drawn) [Example 12, 5-Methylaminocamptothecin], the IC50 worked out at 4.67 µM.

The next data set deals with CCRF-CEM. The experiment in a line: NCI in vitro growth inhibition, leukemia CCRF-CEM. Format: cell-based. The conditions noted are these: Homo sapiens, read-out: 50% Growth Inhibition (GI 50), 48 h. As for the experimental part:
as §1
Turning to `CC[C@@]1(O)C(=O)OCc2c1cc1n(c2=O)C(NC)c2cc3ccccc3nc2-1` (stereo partly drawn) [Example 12, 5-Methylaminocamptothecin], the GI50 stood at 230 nM.
